# Data reported in patent US11661440B2 (priority 2015, dated 2023).
# pIC50: −log10 of the molar value. “Also recorded” adds a separate entry of the source. Ends that are not written are not given here.
# Legend:
# NMDA receptor = assay type: cell-based, rat
# [1] = biological target: GluN2B recombinant subunit (Rattus norvegicus, UniProt Q00960); conditions: cited from earlier work
# [2] = biological target: NMDA receptor GluN2B subunit (Mus musculus, UniProt Q01097); conditions: cited from earlier work
# Chain of NMDA receptor GluN2B subunit (Q01097 whole entry, looked up): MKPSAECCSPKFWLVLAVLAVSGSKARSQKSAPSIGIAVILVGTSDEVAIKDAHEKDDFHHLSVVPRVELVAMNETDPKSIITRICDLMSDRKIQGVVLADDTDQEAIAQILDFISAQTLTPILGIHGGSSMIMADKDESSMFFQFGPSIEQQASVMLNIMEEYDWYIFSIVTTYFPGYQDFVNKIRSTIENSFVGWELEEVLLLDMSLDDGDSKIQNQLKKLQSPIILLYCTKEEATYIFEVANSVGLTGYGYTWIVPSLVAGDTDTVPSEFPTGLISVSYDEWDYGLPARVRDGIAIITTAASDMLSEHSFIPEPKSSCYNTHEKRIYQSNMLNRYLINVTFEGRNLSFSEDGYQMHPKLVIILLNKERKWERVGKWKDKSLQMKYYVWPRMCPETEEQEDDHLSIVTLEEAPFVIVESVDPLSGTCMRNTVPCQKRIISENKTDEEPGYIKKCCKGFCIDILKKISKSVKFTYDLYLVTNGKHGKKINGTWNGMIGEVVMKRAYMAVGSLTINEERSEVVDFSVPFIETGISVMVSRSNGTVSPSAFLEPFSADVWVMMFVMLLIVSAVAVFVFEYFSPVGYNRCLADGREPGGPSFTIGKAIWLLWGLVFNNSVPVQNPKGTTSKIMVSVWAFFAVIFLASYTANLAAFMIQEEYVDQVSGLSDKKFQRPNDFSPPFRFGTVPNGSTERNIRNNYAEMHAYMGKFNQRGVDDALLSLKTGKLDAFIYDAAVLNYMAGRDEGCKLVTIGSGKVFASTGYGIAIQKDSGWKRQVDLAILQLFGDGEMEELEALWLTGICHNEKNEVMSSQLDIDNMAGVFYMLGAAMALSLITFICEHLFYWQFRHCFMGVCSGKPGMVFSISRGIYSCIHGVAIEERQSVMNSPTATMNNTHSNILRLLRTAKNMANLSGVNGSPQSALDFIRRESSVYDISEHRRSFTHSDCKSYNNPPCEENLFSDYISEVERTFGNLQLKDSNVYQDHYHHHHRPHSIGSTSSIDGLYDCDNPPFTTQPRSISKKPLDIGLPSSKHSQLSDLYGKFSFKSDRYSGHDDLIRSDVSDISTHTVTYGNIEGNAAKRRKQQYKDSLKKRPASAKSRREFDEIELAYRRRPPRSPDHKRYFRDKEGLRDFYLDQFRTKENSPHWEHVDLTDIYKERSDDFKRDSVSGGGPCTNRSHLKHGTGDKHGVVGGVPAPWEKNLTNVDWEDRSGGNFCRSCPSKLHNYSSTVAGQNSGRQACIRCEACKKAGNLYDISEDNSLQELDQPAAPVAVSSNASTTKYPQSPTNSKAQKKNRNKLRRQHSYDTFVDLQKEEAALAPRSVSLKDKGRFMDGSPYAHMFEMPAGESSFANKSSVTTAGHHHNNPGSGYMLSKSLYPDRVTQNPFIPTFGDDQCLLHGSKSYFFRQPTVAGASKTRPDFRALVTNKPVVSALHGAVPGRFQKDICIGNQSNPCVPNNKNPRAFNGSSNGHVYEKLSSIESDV
# Chain of GluN2B recombinant subunit (Q00960 27-1482, other chains not shown): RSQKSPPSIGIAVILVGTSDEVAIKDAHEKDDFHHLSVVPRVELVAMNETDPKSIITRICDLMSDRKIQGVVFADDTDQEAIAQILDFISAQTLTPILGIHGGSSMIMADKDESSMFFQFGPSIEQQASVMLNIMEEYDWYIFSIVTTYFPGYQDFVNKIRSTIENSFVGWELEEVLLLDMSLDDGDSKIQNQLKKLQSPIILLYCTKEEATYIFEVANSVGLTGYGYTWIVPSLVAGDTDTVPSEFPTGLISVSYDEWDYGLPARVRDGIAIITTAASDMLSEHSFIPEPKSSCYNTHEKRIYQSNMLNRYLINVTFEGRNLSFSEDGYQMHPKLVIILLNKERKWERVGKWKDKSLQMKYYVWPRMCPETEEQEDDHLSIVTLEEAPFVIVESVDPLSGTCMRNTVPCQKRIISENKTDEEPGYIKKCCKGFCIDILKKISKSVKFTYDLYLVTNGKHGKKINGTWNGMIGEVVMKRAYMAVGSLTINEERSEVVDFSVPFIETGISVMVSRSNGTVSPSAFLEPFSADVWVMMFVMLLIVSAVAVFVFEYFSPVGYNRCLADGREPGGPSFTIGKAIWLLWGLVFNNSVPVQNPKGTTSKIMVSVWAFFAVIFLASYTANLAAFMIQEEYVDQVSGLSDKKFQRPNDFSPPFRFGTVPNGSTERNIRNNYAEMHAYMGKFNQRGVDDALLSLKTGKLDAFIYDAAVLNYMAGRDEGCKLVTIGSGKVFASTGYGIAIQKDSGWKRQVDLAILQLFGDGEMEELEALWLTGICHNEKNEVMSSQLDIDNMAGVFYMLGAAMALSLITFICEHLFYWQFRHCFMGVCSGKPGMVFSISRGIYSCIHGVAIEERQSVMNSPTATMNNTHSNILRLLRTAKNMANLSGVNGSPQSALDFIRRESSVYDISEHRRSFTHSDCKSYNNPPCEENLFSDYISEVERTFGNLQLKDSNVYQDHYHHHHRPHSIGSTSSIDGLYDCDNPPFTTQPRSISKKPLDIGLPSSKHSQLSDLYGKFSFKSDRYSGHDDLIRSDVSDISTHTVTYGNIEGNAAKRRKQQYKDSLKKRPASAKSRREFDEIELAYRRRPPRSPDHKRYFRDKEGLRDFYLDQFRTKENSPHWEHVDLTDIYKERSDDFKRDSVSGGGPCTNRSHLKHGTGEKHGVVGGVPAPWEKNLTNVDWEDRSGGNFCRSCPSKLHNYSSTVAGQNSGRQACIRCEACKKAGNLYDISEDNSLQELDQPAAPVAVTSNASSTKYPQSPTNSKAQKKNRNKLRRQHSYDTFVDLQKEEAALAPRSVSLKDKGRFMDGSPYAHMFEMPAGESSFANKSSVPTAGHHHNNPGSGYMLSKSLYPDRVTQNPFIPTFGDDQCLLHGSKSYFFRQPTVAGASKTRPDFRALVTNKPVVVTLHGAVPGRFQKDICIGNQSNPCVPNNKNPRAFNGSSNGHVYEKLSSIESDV
compound,measurement,setting,value
C[C@@H](CN1CCC(Cc2ccccc2)CC1)[C@@H](O)c1ccc(O)cc1 [Ro 25-9681],blocking of the response evoked by NMDA/glycine,NMDA receptor,less than 50%
same,pIC50,[1],8.05
GEγγLQγNQγLIRγKSN-NH2 [conantokin-G],pIC50,[1],7.00
same,pIC50,[2],6.30
KLGMRSELQIDNDQDAD [SEQ ID NO: 4],agonist effect: input current evoked by the peptide (in words),NMDA receptor,evoked input current via the NMDA receptor; also recorded: an input current was found
"C[C@]12N[C@H](Cc3ccccc31)c1ccccc12 [(+)-MK-801, dizocilpine]",blocking of input current due to stimulation by peptide SEQ ID NO: 4,NMDA receptor,more than 90%
same,blocking of the response (in words),NMDA receptor,almost total blocking of the response
same,reduction in the response obtained by stimulation with NMDA/glycine,NMDA receptor,more than 50%
